Experimental findings from patent US20240101603A1, “ANTIBACTERIAL PEPTIDES AND COMPOUNDS TARGETING TOXIN-ANTITOXIN SYSTEM OF […], AND THEIR USE” (SEOUL NATIONAL UNIVERSITY R&DB FOUNDATION, priority 2021, published 2024) are described below.

Entries after “also recorded” stand apart in the source; their conditions may differ. Read-outs that look alike come from different tables or passages of the source.

For one assay, the target named is T1, VapC (Klebsiella pneumoniae subsp. pneumoniae, UniProt A6TG81).
T1 sequence (A6TG81 1-127): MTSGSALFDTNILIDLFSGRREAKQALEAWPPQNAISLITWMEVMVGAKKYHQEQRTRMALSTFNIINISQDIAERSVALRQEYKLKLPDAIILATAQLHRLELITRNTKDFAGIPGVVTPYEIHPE
Nature of the assay: Isothermal titration calorimetry (ITC), binding to VapC. As for the experimental part:
ITC was performed using MicroCal200 (GE Healthcare). The concentrations of protein and DNA were determined using NanoDrop (Thermo) at 280 nm and 260 nm, respectively. Stock solutions of peptides and small molecules were prepared at appropriate concentrations. Titration was performed at 25° C. The data were calculated by subtracting the background and fitted to a single-site binding model using the provided source-based software with MicroCal200.
(In general: ITC needs no label: the signal is the heat of the interaction.)

The next assay concerns the target T2, VapBC complex (Klebsiella pneumoniae subsp. pneumoniae, UniProt A6TG81).
T2 sequence (A6TG81 1-127): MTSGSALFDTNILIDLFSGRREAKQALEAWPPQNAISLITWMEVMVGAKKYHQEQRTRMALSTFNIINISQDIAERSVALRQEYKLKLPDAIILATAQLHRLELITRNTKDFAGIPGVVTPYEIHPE
T2 sequence (A6TG80 1-82 partner): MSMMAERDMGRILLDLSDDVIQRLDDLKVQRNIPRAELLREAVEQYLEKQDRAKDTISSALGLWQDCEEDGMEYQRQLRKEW
Nature of the assay: VapBC complex disruption assay (RNase activity of VapC released from the complex). The following applies: for VapBC complex disruption efficacy: 1 μM compound added to 10 μM VapBC complex, compared with peptides at 100 μM; for IC50: inhibition curves, 10 μM VapBC complex; for VapBC complex disruption efficacy (RNase activity relative to VapC): 100 μM peptide added to 10 μM VapBC complex. It counts as biochemical. The protocol:
(§1) The RNase activity of VapC and VapC mutants was confirmed using an RNase Alert Kit (Integrated DNA Technologies, Inc.). In this analysis, each well contained 50 pm of synthetic RNA with a fluorophore at one end and a quencher group at the other end. The quencher was separated when the prepared RNA was contacted by RNase. Then, fluorescence (RFU) generated during the 1 hour reaction period was detected using a SPECTRAmax GEMINI XS spectrometer (Molecular Devices) at 490 nm (excitation wavelength) and 520 nm (emission wavelength), respectively. For this analysis, the purified VapC and VapC mutants were treated with 10 mM EDTA to remove metal ions and exchanged with a purification buffer containing 10 mM Mg^2+. In each experiment, the concentrations of both VapC and VapC mutants were 10 μM. To prevent contamination, 40 units of RiboLock (Thermoscientific) were added to each well.
In this example, the peptide (100 μM) synthesized in Example 1 was added to the VapBC complex (10 μM) and the RFU of the activated VapC toxin was measured. Other experimental protocols were the same as those for the RNase activity test of VapC and VapC mutants (Experimental Method 5). Upon addition of the peptide of the present invention to the VapBC complex, the inhibitory efficacy of the peptide can be estimated by measuring the RNase activity generated by the free VapC released by the disruption of the VapBC complex.
Using a similar analysis method as in the design of peptides that activate VapC, the inhibitory effect of the compounds was ranked according to the degree of RNase activity by the free VapC released due to the disruption of the VapBC complex. That is, the small molecules were added to the VapBC complex (10 μM) and the efficacy of the small molecules to activate VapC was tested. Other experimental protocols were the same as those described for the peptide-induced complex disruption assay (Examples 2 and 3).

A further assay relates to free VapC. Nature of the assay: Effect on RNase activity of free VapC. It counts as biochemical, Klebsiella pneumoniae. The note with it: substance added to free VapC. The protocol: as §1
However, if the peptide contains the residues that interact with the nucleic acid binding site of VapC, which is the active site of VapC, the destructive ability is suppressed. Accordingly, in this example, the effect of the peptide of the present invention on the activity of free VapC was analyzed.
Through three tests, a total of 400 compounds were narrowed down to 25 according to the inhibitory efficacy ranking. […]

Assay [1] concerns the target Klebsiella pneumoniae VapC toxin (kpn_04186) with N-terminal tag (Klebsiella pneumoniae (MGH78578)). Nature of the assay: ITC, 25 °C, single-site binding model.
Setting [2] is: 25° C., single-site binding model.
The mark [3] stands for this setting: read-out: Kd (affinity to VapC).
[4] abbreviates: 25° C., single-site binding model, read-out: Kd.

The term Kd denotes the concentration at which binding is half-saturated. Regarding GMEYQRQL [VapB^71-78], at VapC (25° C.), the TΔS was -8.4 kcal/mol, the ΔG is -26.3 kcal/mol and the ΔH is -17.9 ± 0.07 kcal/mol. Besides, the “n (the binding stoichiometry)” value at VapC (setting [2]) was determined as 1.02 ± 0.002. Further, the dissociation constant (Kd) on VapC (setting [3]) amounted to 110 nM.
Broadly, the IC50 is the midpoint of a concentration-inhibition curve. Regarding `NC(=O)NC(=O)CCN1CCC(C(=O)c2ccc(O)cc2)CC1` [Compound 1, N-carbamoyl-3-(4-(4-hydroxybenzoyl)piperidine-1-yl)propanamide], on VapBC complex, the “VapBC complex disruption efficacy” value is given as “higher efficacy at 1 μM” and the IC50 turned out to be 420 nM. Further, the “RNase activity of free VapC after treatment” value in the assay on free VapC is reported as “did not affect the RNase activity of VapC”. At VapC (25° C.), this molecule gave a TΔS of 1.93 kcal/mol, a ΔG of -6.37 kcal/mol and a ΔH of -8.3 ± 0.03 kcal/mol. Besides, at VapC (setting [2]), the “n (the binding stoichiometry)” value worked out at 0.98 ± 0.002. The Kd on VapC (setting [4]) was found to be 35 ± 0.4 nM.
In the case of GMEAARQL [VapB^71-78, Y74A, Q75A], the “VapBC complex disruption efficacy (RNase activity relative to VapC)” value with VapBC complex was “lower efficacy than the VapB peptide in which either one was mutated to alanine”.
For the molecule GMEAQRQL [VapB^71-78, Y74A], the “VapBC complex disruption efficacy (RNase activity relative to VapC)” value at VapBC complex is on record as “highest efficacy among all the designed peptides; also recorded: higher activity than VapB^71-78”. On VapC (25° C.), this molecule returned a TΔS of -4.17 kcal/mol, a ΔG of -17.57 kcal/mol and a ΔH of -13.4 ± 0.02 kcal/mol. For the same molecule, the “n (the binding stoichiometry)” value at VapC (setting [2]) is reported as 0.99 ± 0.001. In addition, on VapC (setting [3]), the equilibrium dissociation constant (Kd) was 170 nM.
Regarding GMEYARQL [VapB^71-78, Q75A], the “VapBC complex disruption efficacy (RNase activity relative to VapC)” value on VapBC complex was “higher activity than VapB^71-78”. On VapC (25° C.), this molecule showed a TΔS of -1.53 kcal/mol, a ΔG of -12.33 kcal/mol and a ΔH of -10.8 ± 0.02 kcal/mol. In addition, the “n (the binding stoichiometry)” value on VapC (setting [2]) was 0.99 ± 0.001. Further, on VapC (setting [3]), the dissociation constant (Kd) worked out at 150 nM.
`CCC1Oc2cc(S(=O)(=O)N3CCCC(C(=O)Nc4ccc(F)cc4)C3)c(C)cc2NC1=O` (stereo not drawn) [Compound 2, 1-((2-ethyl-6-methyl-3-oxo-3,4-dihydro-2H-benzo[b][1,4]oxazine-7-yl)sulfonyl)-N-(4-fluorophenyl)piperidine-3-carboxamide]: on VapBC complex, the “VapBC complex disruption efficacy” value is “higher efficacy at 1 μM” and the IC50 was found to be 400 nM. Moreover, the “RNase activity of free VapC after treatment” value with free VapC is on record as “did not affect the RNase activity of VapC”. In addition, at VapC (25° C.), the TΔS was 1.39 kcal/mol, the ΔG is -7.71 kcal/mol and the ΔH is -9.1 ± 0.06 kcal/mol. Also, the “n (the binding stoichiometry)” value on VapC (setting [2]) amounted to 0.99 ± 0.004. Besides, the Kd at VapC (setting [4]) is 22 ± 0.2 nM.
In assay [1], “Klebsiella pneumoniae VapB antitoxin (kpn_04185)” displayed a Kd of 3 nM, a TΔS of -16.4 kcal/mol, a n (the binding stoichiometry) of 0.97 and a ΔH of -28.1 kcal/mol.
Take GMEYARQL [Peptide VapB^71-78, Q75A]: in assay [1], the Kd amounted to 150 nM, the TΔS was -1.53 kcal/mol, the n (the binding stoichiometry) was found to be 0.99 and the ΔG is -12.3 kcal/mol. Moreover, the ΔH in assay [1] was -10.8 kcal/mol.
On to GMEAQRQL [Peptide VapB^71-78, Y74A], for which, in assay [1], the Kd was 170 nM, the TΔS is -4.17 kcal/mol, the n (the binding stoichiometry) is 0.99 and the ΔH is -13.4 kcal/mol.
For GMEYQRQL [Peptide VapB^71-78], in that order: 110 nM, -8.4 kcal/mol, 1.02 and -17.9 kcal/mol.
